In patent publication US4368329A, “Process of preparing thiopyrylium sensitizing dyes” (Minnesota Mining and Manufacturing Company, priority 1981, dated 1983):

Assay: Absorption maximum (λmax) and log ε of the dye in solution
Type: physicochemical

CCN(Cc1ccccc1)c1ccc(-c2cc(-c3ccccc3)cc(-c3ccccc3)[s+]2)cc1 [Example 8]
log ε max. (CHCl3): 4.53 | λ max. (CHCl3): 620

COc1cc(-c2cc(-c3ccccc3)cc(-c3ccccc3)[s+]2)c(OC)cc1N [Example 25]
log ε max. (CHCl3): 4.36 | λ max. (CHCl3): 602

Nc1ccc(-c2cc(-c3ccccc3)cc(-c3ccccc3)[s+]2)cc1 [Example 1, 2-(4-aminophenyl)-4,6-diphenylthiopyrylium perchlorate]
log ε max. (EtOH): 4.21 | λ max. (EtOH): 584 | logε (Example 1, first band (584), solvent not given): 4.21 | λ max. (Example 1, first band, solvent not given): 584 | logε (Example 1, second band (367), solvent not given): 4.27 | λ max. (Example 1, second band, solvent not given): 367

c1ccc(-c2cc(-c3ccccc3)[s+]c(-c3cc4c5c(c3)CCCN5CCC4)c2)cc1 [Example 31, 2,4-diphenyl-6(julolidin-6-yl) thiopyrylium trifluoromethane sulfonate]
λ max. (CHCl3): 675 nm

COc1cc(N)ccc1-c1cc(-c2ccccc2)cc(-c2ccccc2)[s+]1 [Example 23]
log ε max. (CHCl3): 4.27 | λ max. (CHCl3): 586

CCc1cc(-c2cc(-c3ccccc3)cc(-c3ccccc3)[s+]2)cc(CC)c1N [Example 18]
log ε max. (CHCl3): 4.32 | λ max. (CHCl3): 602

c1ccc(-c2cc(-c3ccccc3)[s+]c(-c3ccc(NC4CCCCC4)cc3)c2)cc1 [Example 19]
log ε max. (CHCl3): 4.31 | λ max. (CHCl3): 634

Cc1cc(-c2cc(-c3ccccc3)cc(-c3ccccc3)[s+]2)ccc1N [Example 12]
log ε max. (CHCl3): 4.32 | λ max. (CHCl3): 600

CCN(CC)c1ccc(-c2cc(-c3ccccc3)cc(-c3ccccc3)[s+]2)cc1 [Example 7]
log ε max. (CHCl3): 4.50 | λ max. (CHCl3): 638

Cc1cc(N(C)C)ccc1-c1cc(-c2ccccc2)cc(-c2ccccc2)[s+]1 [Example 16]
λ max. (CHCl3): 616

COc1cc(-c2cc(-c3ccccc3)cc(-c3ccccc3)[s+]2)ccc1N [Example 21]
log ε max. (CHCl3): 4.32 | λ max. (CHCl3): 612

Nc1ccc(-c2cc(-c3ccccc3)cc(-c3ccccc3)[s+]2)cc1N [Example 29]
λ max. (CHCl3): 654

OCCN(CCO)c1ccc(-c2cc(-c3ccccc3)cc(-c3ccccc3)[s+]2)cc1 [Example 26]
log ε max. (CHCl3): 4.31 | λ max. (CHCl3): 638

CNc1ccc(-c2cc(-c3ccccc3)cc(-c3ccccc3)[s+]2)cc1 [Example 3]
log ε max. (EtOH): 4.38 | λ max. (EtOH): 596

c1ccc(Nc2ccc(-c3cc(-c4ccccc4)cc(-c4ccccc4)[s+]3)cc2)cc1 [Example 20]
log ε max. (CHCl3): 4.39 | λ max. (CHCl3): 650

CN(C)c1ccc(-c2cc(-c3ccccc3)cc(-c3ccccc3)[s+]2)cc1 [Example 5]
log ε max. (CHCl3): 4.77 | λ max. (CHCl3): 624

COc1cc(-c2cc(-c3ccccc3)cc(-c3ccccc3)[s+]2)ccc1N [Example 22]
log ε max. (EtOH): 4.19 | λ max. (EtOH): 588

Nc1ccc(-c2cc(-c3ccccc3)cc(-c3ccccc3)[s+]2)c(Cl)c1 [Example 27]
log ε max. (CHCl3): 4.00 | λ max. (CHCl3): 564

Cc1cc(-c2cc(-c3ccccc3)cc(-c3ccccc3)[s+]2)ccc1N [Example 13]
log ε max. (EtOH): 4.32 | λ max. (EtOH): 596

Cc1cc(N)ccc1-c1cc(-c2ccccc2)cc(-c2ccccc2)[s+]1 [Example 15]
log ε max. (EtOH): 4.16 | λ max. (EtOH): 556

COc1cc(N)ccc1-c1cc(-c2ccccc2)cc(-c2ccccc2)[s+]1 [Example 24]
log ε max. (EtOH): 4.16 | λ max. (EtOH): 566

CCN(Cc1ccccc1)c1ccc(-c2cc(-c3ccccc3)cc(-c3ccccc3)[s+]2)cc1 [Example 10]
log ε max. (CHCl3): 5.05 | λ max. (CHCl3): 620

CNc1ccc(-c2cc(-c3ccccc3)cc(-c3ccccc3)[s+]2)cc1 [Example 4]
log ε max. (CHCl3): 4.55 | λ max. (CHCl3): 633

CN(C)c1ccc(-c2cc(-c3ccccc3)cc(-c3ccccc3)[s+]2)cc1 [Example 6]
log ε max. (CHCl3): 4.86 | λ max. (CHCl3): 622

c1ccc(CN(Cc2ccccc2)c2ccc(-c3cc(-c4ccccc4)cc(-c4ccccc4)[s+]3)cc2)cc1 [Example 11]
log ε max. (CHCl3): 4.50 | λ max. (CHCl3): 602

Cc1cc(-c2cc(-c3ccccc3)cc(-c3ccccc3)[s+]2)cc(C)c1N [Example 17]
log ε max. (CHCl3): 4.32 | λ max. (CHCl3): 600

Nc1ccc(-c2cc(-c3ccccc3)cc(-c3ccccc3)[s+]2)cc1 [Example 2]
log ε max. (CHCl3): 4.34 | λ max. (CHCl3): 592

CCN(Cc1ccccc1)c1ccc(-c2cc(-c3ccccc3)cc(-c3ccccc3)[s+]2)cc1 [Example 9]
log ε max. (CHCl3): 5.18 | λ max. (CHCl3): 615

Cc1cc(N)ccc1-c1cc(-c2ccccc2)cc(-c2ccccc2)[s+]1 [Example 14]
log ε max. (CHCl3): 4.30 | λ max. (CHCl3): 564

Nc1ccc(-c2cc(-c3ccccc3)cc(-c3ccccc3)[s+]2)c(Cl)c1 [Example 28]
log ε max. (EtOH): 4.06 | λ max. (EtOH): 588
